According to PubChem BioAssay AID248 (DTP/NCI, 2004):
“And” between values parts separate entries of the source, which are not always exact repeats. Identical values can stand only once. Toxic doses and inconclusive results are not listed.

System: L1210 leukemia ip in BDF1 mice, survival T/C
Experiment: NCI In Vivo Anticancer Drug Screen. Data for tumor model L1210 Leukemia (intraperitoneal) in B6D2F1 (BDF1) mice
Settings: endpoint: mean survival time, higher = longer survival
In short: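 Antitumor effect is assessed in tumor-bearing animals. Survival in the compound arm is compared with a vehicle-dosed control arm and expressed as their quotient.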

[1] = dose: 25.0 mg/kg/injection, schedule: Q01DX009 (ip), vehicle: saline
[2] = dose: 50.0 mg/kg/injection, schedule: Q01DX009 (ip), vehicle: saline
[3] = dose: 100.0 mg/kg/injection, schedule: Q01DX009 (ip), vehicle: saline
[4] = dose: 200.0 mg/kg/injection, schedule: Q01DX009 (ip), vehicle: saline
[5] = dose: 100.0 mg/kg/injection, schedule: Q01DX001 (ip), vehicle: saline with Tween-80
[6] = dose: 200.0 mg/kg/injection, schedule: Q01DX001 (ip), vehicle: saline with Tween-80
[7] = dose: 100.0 mg/kg/injection, schedule: Q01DX001 (ip), vehicle: carboxymethylcellulose (CMC)
[8] = dose: 100.0 mg/kg/injection, schedule: Q04DX003 (ip), vehicle: saline with Tween-80
[9] = dose: 200.0 mg/kg/injection, schedule: Q04DX003 (ip), vehicle: saline with Tween-80
[10] = dose: 400.0 mg/kg/injection, schedule: Q04DX003 (ip), vehicle: saline with Tween-80
[11] = dose: 100.0 mg/kg/injection, schedule: Q01DX001 (ip), vehicle: saline
[12] = dose: 200.0 mg/kg/injection, schedule: Q01DX001 (ip), vehicle: saline
[13] = dose: 400.0 mg/kg/injection, schedule: Q01DX001 (ip), vehicle: saline
[14] = dose: 50.0 mg/kg/injection, schedule: Q01DX009 (ip), vehicle: saline with Tween-80
[15] = dose: 100.0 mg/kg/injection, schedule: Q01DX009 (ip), vehicle: saline with Tween-80
[16] = dose: 200.0 mg/kg/injection, schedule: Q01DX009 (ip), vehicle: saline with Tween-80

Compound: CC#CCOCC1CN(C)C(=O)O1 (stereo not given)
- T/C [1]: 95 % of control
- T/C [2]: 98 % of control
- T/C (dose: 50.0 mg/kg/injection, schedule: Q04DX003 (ip), vehicle: saline): 106 % of control
- T/C [3]: 92 % of control
- T/C (dose: 100.0 mg/kg/injection, schedule: Q04DX003 (ip), vehicle: saline): 101 % of control
- T/C [4]: 90 % of control
- T/C (dose: 200.0 mg/kg/injection, schedule: Q04DX003 (ip), vehicle: saline): 104 % of control
- T/C (dose: 400.0 mg/kg/injection, schedule: Q01DX009 (ip), vehicle: saline): 95 % of control
- T/C (dose: 400.0 mg/kg/injection, schedule: Q04DX003 (ip), vehicle: saline): 101 % of control

Compound: C[CH2][Ge]([CH2]C)[CH2]C.C[CH2][Ge]([CH2]C)[CH2]C
- T/C [5]: 94 % of control
- T/C (dose: 100.0 mg/kg/injection, schedule: Q04DX002 (ip), vehicle: saline with Tween-80): 95 % of control
- T/C [6]: 90 % of control
- T/C (dose: 200.0 mg/kg/injection, schedule: Q04DX002 (ip), vehicle: saline with Tween-80): 95 % of control
- T/C (dose: 400.0 mg/kg/injection, schedule: Q04DX002 (ip), vehicle: saline with Tween-80): 92 % of control

Compound: CCCCCNC(=O)CCC(=O)NCCCCC
- T/C (dose: 100.0 mg/kg/injection, schedule: Q01DX001 (ip), vehicle: other): 98 % of control
- T/C (dose: 200.0 mg/kg/injection, schedule: Q01DX001 (ip), vehicle: other): 98 % of control
- T/C (dose: 400.0 mg/kg/injection, schedule: Q01DX001 (ip), vehicle: other): 98 % of control

Compound: COC1C(CO)OC(n2cnc3c(=S)nc(N)[nH]c32)C1O (stereo not given)
- T/C (dose: 25.0 mg/kg/injection, schedule: Q01DX009 (ip), vehicle: carboxymethylcellulose (CMC)): 105 % of control
- T/C [1]: 100 % of control
- T/C (dose: 50.0 mg/kg/injection, schedule: Q01DX009 (ip), vehicle: carboxymethylcellulose (CMC)): 103 % of control
- T/C [2]: 116 % of control
- T/C [7]: 111 % of control
- T/C [3]: 157 % of control
- T/C (dose: 200.0 mg/kg/injection, schedule: Q01DX009 (ip), vehicle: carboxymethylcellulose (CMC)): 155 % of control
- T/C [4]: 168 % of control
- T/C (dose: 400.0 mg/kg/injection, schedule: Q01DX001 (ip), vehicle: carboxymethylcellulose (CMC)): 154 % of control and 158 % of control

Compound: CC(C)OC(C(=O)O)c1ccccc1 (stereo not given)
- T/C [7]: 101 % of control
- T/C (dose: 200.0 mg/kg/injection, schedule: Q01DX001 (ip), vehicle: carboxymethylcellulose (CMC)): 101 % of control

Compound: CC(C)(C)C(=O)CC(=O)C(C)(C)C.CC(C)(C)C(=O)CC(=O)C(C)(C)C.CC(C)(C)C(=O)CC(=O)C(C)(C)C.[Er]
- T/C [8]: 100 % of control
- T/C [9]: 97 % of control
- T/C [10]: 94 % of control

Compound: [Mn+2].[NH-]CC(=O)O.[NH-]CC(=O)O
- T/C [11]: 96 % of control

Compound: CC(C)=CN1CCOCC1
- T/C (dose: 25.0 mg/kg/injection, schedule: Q01DX009 (ip), vehicle: Klucel (hydroxypropylcellulose) (HPC)): 94 % of control
- T/C (dose: 50.0 mg/kg/injection, schedule: Q01DX009 (ip), vehicle: Klucel (hydroxypropylcellulose) (HPC)): 92 % of control
- T/C (dose: 100.0 mg/kg/injection, schedule: Q01DX009 (ip), vehicle: Klucel (hydroxypropylcellulose) (HPC)): 97 % of control and 106 % of control
- T/C (dose: 100.0 mg/kg/injection, schedule: Q04DX003 (ip), vehicle: Klucel (hydroxypropylcellulose) (HPC)): 100 % of control
- T/C (dose: 200.0 mg/kg/injection, schedule: Q04DX003 (ip), vehicle: Klucel (hydroxypropylcellulose) (HPC)): 100 % of control
- T/C (dose: 400.0 mg/kg/injection, schedule: Q04DX003 (ip), vehicle: Klucel (hydroxypropylcellulose) (HPC)): 102 % of control

Compound: CNC(=O)Oc1cccc(NC(=O)OCC#CCCl)c1
- T/C [5]: 92 % of control
- T/C [6]: 90 % of control
- T/C (dose: 400.0 mg/kg/injection, schedule: Q01DX001 (ip), vehicle: saline with Tween-80): 90 % of control

Compound: CC(C)N(CCSC(=O)N1c2ccccc2Sc2cccnc21)C(C)C
- T/C (dose: 5.0 mg/kg/injection, schedule: Q04DX003 (ip), vehicle: Klucel (hydroxypropylcellulose) (HPC)): 90 % of control
- T/C (dose: 10.0 mg/kg/injection, schedule: Q04DX003 (ip), vehicle: Klucel (hydroxypropylcellulose) (HPC)): 110 % of control

Compound: C/C(=N\NC(N)=O)C(F)(F)F
- T/C (dose: 15.0 mg/kg/injection, schedule: Q01DX Z (ip), vehicle: carboxymethylcellulose (CMC)): 110 % of control
- T/C (dose: 30.0 mg/kg/injection, schedule: Q01DX Z (ip), vehicle: carboxymethylcellulose (CMC)): 93 % of control
- T/C (dose: 60.0 mg/kg/injection, schedule: Q01DX Z (ip), vehicle: carboxymethylcellulose (CMC)): 100 % of control and 103 % of control
- T/C (dose: 120.0 mg/kg/injection, schedule: Q01DX Z (ip), vehicle: carboxymethylcellulose (CMC)): 103 % of control and 109 % of control
- T/C (dose: 120.0 mg/kg/injection, schedule: Q01DX Z (oral), vehicle: carboxymethylcellulose (CMC)): 109 % of control
- T/C (dose: 240.0 mg/kg/injection, schedule: Q01DX Z (ip), vehicle: carboxymethylcellulose (CMC)): 112 % of control
- T/C (dose: 240.0 mg/kg/injection, schedule: Q01DX Z (oral), vehicle: carboxymethylcellulose (CMC)): 101 % of control
- T/C (dose: 480.0 mg/kg/injection, schedule: Q01DX Z (oral), vehicle: carboxymethylcellulose (CMC)): 90 % of control

Compound: O=C(c1ccccc1)C1C(=O)N(c2ccccc2)C(=O)N1c1ccccc1 (stereo not given)
- T/C [11]: 90 % of control
- T/C [12]: 96 % of control
- T/C [13]: 96 % of control

Compound: C=CCCCCn1c2ccccc2c2c(C)c3cnccc3c(C)c21
- T/C [8]: 91 % of control
- T/C [9]: 91 % of control
- T/C [10]: 92 % of control

Compound: O=C(O)C(Cc1ccc(O)cc1)NC(=O)N(c1ccccc1)c1ccccc1 (stereo not given)
- T/C [11]: 95 % of control
- T/C [12]: 103 % of control
- T/C [13]: 106 % of control

Compound: CC1(C)CN=C(c2ccc([N+](=O)[O-])cc2)O1
- T/C (dose: 75.0 mg/kg/injection, schedule: Q04DX003 (ip), vehicle: Klucel (hydroxypropylcellulose) (HPC)): 108 % of control
- T/C (dose: 150.0 mg/kg/injection, schedule: Q04DX003 (ip), vehicle: Klucel (hydroxypropylcellulose) (HPC)): 94 % of control
- T/C (dose: 300.0 mg/kg/injection, schedule: Q04DX003 (ip), vehicle: Klucel (hydroxypropylcellulose) (HPC)): 89 % of control

Compound: S=C(NC1CC2C=CC1C2)N1CCCCC1 (stereo not given)
- T/C [14]: 106 % of control
- T/C [15]: 100 % of control
- T/C [16]: 95 % of control

Compound: CCC(=O)OC1(c2ccccc2)CCN(CC2CC2)CC1C (stereo not given)
- T/C (dose: 20.0 mg/kg/injection, schedule: Q04DX003 (ip), vehicle: saline): 105 % of control
- T/C (dose: 40.0 mg/kg/injection, schedule: Q04DX003 (ip), vehicle: saline): 111 % of control
- T/C (dose: 80.0 mg/kg/injection, schedule: Q04DX003 (ip), vehicle: saline): 91 % of control

Compound: CCCCNC(=O)Nc1ccc(Nc2ccccc2)cc1
- T/C (dose: 100.0 mg/kg/injection, schedule: Q01DX009 (ip), vehicle: gum acacia): 88 % of control
- T/C (dose: 100.0 mg/kg/injection, schedule: Q04DX003 (ip), vehicle: gum acacia): 88 % of control
- T/C (dose: 200.0 mg/kg/injection, schedule: Q01DX009 (ip), vehicle: gum acacia): 108 % of control
- T/C (dose: 200.0 mg/kg/injection, schedule: Q04DX003 (ip), vehicle: gum acacia): 96 % of control
- T/C (dose: 400.0 mg/kg/injection, schedule: Q04DX003 (ip), vehicle: gum acacia): 96 % of control

Compound: Cc1ccc(S(=O)(=O)N/N=C/c2ccccc2C)cc1
- T/C [15]: 105 % of control
- T/C [8]: 98 % of control
- T/C [16]: 100 % of control
- T/C [9]: 95 % of control
- T/C (dose: 400.0 mg/kg/injection, schedule: Q01DX009 (ip), vehicle: saline with Tween-80): 97 % of control
- T/C [10]: 95 % of control

Compound: O=C(O)CC(NS(=O)(=O)Cc1ccccc1)C(=O)O (stereo not given)
- T/C (dose: 100.0 mg/kg/injection, schedule: Q04DX003 (ip), vehicle: other): 94 % of control
- T/C (dose: 200.0 mg/kg/injection, schedule: Q04DX003 (ip), vehicle: other): 92 % of control
- T/C (dose: 400.0 mg/kg/injection, schedule: Q04DX003 (ip), vehicle: other): 92 % of control

Compound: CCN(CC)CCn1c(CC23CC4CC(CC(C4)C2)C3)nc2cc([N+](=O)[O-])ccc21
- T/C (dose: 100.0 mg/kg/injection, schedule: Q01DX001 (ip), vehicle: Klucel (hydroxypropylcellulose) (HPC)): 90 % of control
- T/C (dose: 200.0 mg/kg/injection, schedule: Q01DX001 (ip), vehicle: Klucel (hydroxypropylcellulose) (HPC)): 98 % of control

Compound: O=C1CCN(S(=O)(=O)c2ccccc2)c2ccccc21
- T/C [11]: 94 % of control
- T/C [12]: 94 % of control
- T/C [13]: 92 % of control

Compound: COc1ccccc1C1CCCC2C(Oc3ccc([N+](=O)[O-])cc3)OC12 (stereo not given)
- T/C [14]: 87 % of control
- T/C [15]: 100 % of control
